As a reminder, the Ki is a measure of affinity in units of concentration, obtained from inhibition or displacement.

Like-named read-outs stand apart in the source and are kept apart here. Non-standard residues stand in square brackets, D forms with d. Residues, ends and D or L forms follow the SMILES beside them. *: point of attachment. X1 = O=C(CN1CCN(CCO)CC1)*

One assay concerns the target T1, rat SSTR-2 (Rattus norvegicus, UniProt P30680).
T1 construct: Crude membranes were prepared by homogenizing AR42J cells; host or cells: AR42J rat pancreatic acinar tumor cells
In words: Rat SSTR-2 binding assay ([125I-Tyr]MK-678, AR42J cell membranes). The protocol: Crude membranes were prepared by homogenizing AR42J cells (ATCC, Rockville, Md.; ATCC No. CRL1992) in 20 ml of ice-cold 50 mM Tris-HCl (Buffer A) with a POLYTRON homogenizer (Brinkmann Instruments, Westbury, N.Y.) at setting 6, for 15 sec. Additional Buffer A was added to obtain a final volume of 40 ml, and the homogenate was centrifuged in a Sorval SS-34 rotor (DuPont, Newtown, Conn.) at 39,000 g for 10 min at 0-4° C. The resulting supernatant was decanted and discarded. The pellet was rehomogenized in ice-cold Buffer A, diluted, and centrifuged as before. The final pellet was resuspended in the 10 mM Tris HCl and held on ice for the receptor binding assay.
Aliquots of the membrane preparation were incubated for 90 min at 25° C. with 0.05 nM [^125I-Tyr]MK-678 (2000 Ci/mmol) in 50 mM HEPES (pH 7.4) containing a test peptide of various concentrations (e.g., 10^−11 to 10^−6 M), 10 mg/ml bovine serum albumin (fraction V) (Sigma Chemical Co., St. Louis, Mo.), MgCl2 (5 mM), Trasylol (200 KIU/ml), bacitracin (0.02 mg/ml), and phenylmethyl-sulphonyl fluoride (0.02 mg/ml). The final assay volume was 0.3 ml. The incubations were terminated by rapid filtration through GF/C filters (pre-soaked in 0.3% polyethylenimine for 30 min) using a filtration manifold (Brandel, Gaithersburg, Md.).

Assay [1] addresses T2, rat SSTR-5 (Rattus norvegicus, UniProt P30938).
T2 construct: Crude membranes were prepared by homogenization of rat olfactory bulb cells; tissue Zivic-Miller Laboratory, Inc; host or cells: rat olfactory bulb
T2 sequence (P30938 1-363): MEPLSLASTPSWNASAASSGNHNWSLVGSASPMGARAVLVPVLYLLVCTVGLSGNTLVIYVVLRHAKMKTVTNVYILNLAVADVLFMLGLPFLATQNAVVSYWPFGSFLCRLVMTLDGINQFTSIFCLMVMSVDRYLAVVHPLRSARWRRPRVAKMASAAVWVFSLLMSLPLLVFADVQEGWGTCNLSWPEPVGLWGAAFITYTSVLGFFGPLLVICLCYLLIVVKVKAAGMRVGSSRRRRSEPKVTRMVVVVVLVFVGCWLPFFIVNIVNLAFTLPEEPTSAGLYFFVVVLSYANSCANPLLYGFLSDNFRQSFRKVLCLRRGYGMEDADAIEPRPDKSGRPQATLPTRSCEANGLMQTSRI
In words: Rat SSTR-5 binding assay ([125I-Tyr11]somatostatin-14, rat olfactory bulb membranes). How it is done: (§1) Crude membranes were prepared by homogenization of rat olfactory bulb cells (Zivic-Miller Laboratory, Inc., Zellenople, Pa.) in 20 ml of ice-cold 50 mM Tris-HCl with a POLYTRON homogenizer (setting 6, 15 sec). Buffer was added to obtain a final volume of 40 ml, and the homogenate was centrifuged in a Sorval SS-34 rotor at 39,000 g for 10 min at 0-4° C. The resulting supernatant was decanted and discarded. The pellet was rehomogenized in ice-cold buffer, diluted, and centrifuged as before. The final pellet was resuspended in the 10 mM Tris HCl and held on ice for the receptor binding assay.
(§2) The final assay volume was 0.3 ml. The incubations were terminated by rapid filtration through GF/C filters (pre-soaked in 0.3% polyethylenimine for 30 min) using a Brandel filtration manifold. Each tube and filter were then washed three times with 5 ml aliquots of ice-cold buffer.

The test system of assay [2] is rat SSTR-5. The assay is described as above. The following applies: rat SSTR-2 Ki / rat SSTR-5 Ki. How it is done:
as §1, §2

The target of the next assay is T3, human SSTR-5 (Homo sapiens, UniProt P35346).
T3 construct: expressed in transfected cells
T3 sequence (P35346 whole entry): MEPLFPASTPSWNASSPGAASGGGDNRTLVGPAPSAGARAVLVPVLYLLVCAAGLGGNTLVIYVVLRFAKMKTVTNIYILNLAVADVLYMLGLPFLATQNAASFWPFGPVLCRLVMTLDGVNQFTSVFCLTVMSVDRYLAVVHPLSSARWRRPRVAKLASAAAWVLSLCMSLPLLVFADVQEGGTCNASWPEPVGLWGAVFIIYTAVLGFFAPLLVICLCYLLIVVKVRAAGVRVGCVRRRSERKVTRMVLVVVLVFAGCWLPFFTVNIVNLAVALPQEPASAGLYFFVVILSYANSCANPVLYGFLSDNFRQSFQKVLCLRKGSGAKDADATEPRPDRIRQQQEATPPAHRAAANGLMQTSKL
In words: Human SSTR-5 binding assay (transfected CHO-K1 cells). The following applies: for SSTR-2/SSTR-5 (ratio of Ki's): human SSTR-2 Ki / human SSTR-5 Ki. From the text: The human SSTR-5 cDNA clone has been described in the literature. See Panetta, et al., Mol Pharmacol., 45:417-427 (1994); O'Carroll, et al., Mol Pharmacol, 46:291-298 (1994); Yamada, et al., Biochem. Biophys. Res. Commun., 195:844 (1993) [FIG. 1 depicts the DNA sequence of the human SSTR-5.] Using a sense 5′-oligonucleotide primer, immediately preceeding the start codon (residue 30-50), and an antisense 3′-oligonucleotide primer, immediately preceeding the stop codon (residues 1180-1200), a 1170 base pair fragment comprising the full-length coding sequence of the receptor was obtained by standard Reverse-transcription PCR. See Yamada, et al., Biochem. Biophys. Res. Commun., 195:844 (1993) [FIG. 1 depicts the DNA sequence of the human SSTR-5]; Innis, et al., PCR Protocols, A Guide to Methods and Applications, Academic Press, 1990. The identity of the cDNA fragment was verified by DNA sequencing using the dideoxy-chain termination method [Sanger, et al., Proc Natl Acad Sci USA., 74:5463 (1977)] with the Sequenase kit (United States Biochemicals, Arlington Heights, Ill.).
The human SSTR-5 cDNA fragment was inserted into a mammalian expression vector, pCMV to generate the expression plasmid pCMV-human SSTR-5 by blunt-end ligation.
Membranes from the stably transfected cell line were used in the rat SSTR-5 binding protocol described above.

The next assay addresses human SSTR-2 (Homo sapiens, UniProt P30874). The assay can be described thus: Human SSTR-2 binding assay (transfected CHO-K1 cells).
In a further assay the test system is rat Pancreas cells. In words: Amylin release inhibition assay using rat pancreas cells (isolated perfused pancreas). The following applies: 16.7 mM glucose, 10 nM test compound. In kind it is cell-based.
Where [3] appears, read: rat, AR42J cell membranes, radioligand [125I-Tyr]MK-678 0.05 nM, read-out: Ki SSTR-2.

Sequence of human SSTR-2 (P30874 whole entry, the tested form may be a part): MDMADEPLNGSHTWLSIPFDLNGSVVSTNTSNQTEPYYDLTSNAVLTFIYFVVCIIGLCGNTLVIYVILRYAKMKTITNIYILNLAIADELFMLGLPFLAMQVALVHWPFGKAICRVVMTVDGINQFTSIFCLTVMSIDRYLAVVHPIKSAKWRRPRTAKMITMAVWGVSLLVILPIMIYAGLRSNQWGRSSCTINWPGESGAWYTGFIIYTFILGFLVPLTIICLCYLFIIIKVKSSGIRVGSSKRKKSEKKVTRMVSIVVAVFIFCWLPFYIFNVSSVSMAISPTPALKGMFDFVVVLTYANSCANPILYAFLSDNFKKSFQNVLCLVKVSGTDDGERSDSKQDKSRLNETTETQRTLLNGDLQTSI
T1 sequence (P30680 whole entry): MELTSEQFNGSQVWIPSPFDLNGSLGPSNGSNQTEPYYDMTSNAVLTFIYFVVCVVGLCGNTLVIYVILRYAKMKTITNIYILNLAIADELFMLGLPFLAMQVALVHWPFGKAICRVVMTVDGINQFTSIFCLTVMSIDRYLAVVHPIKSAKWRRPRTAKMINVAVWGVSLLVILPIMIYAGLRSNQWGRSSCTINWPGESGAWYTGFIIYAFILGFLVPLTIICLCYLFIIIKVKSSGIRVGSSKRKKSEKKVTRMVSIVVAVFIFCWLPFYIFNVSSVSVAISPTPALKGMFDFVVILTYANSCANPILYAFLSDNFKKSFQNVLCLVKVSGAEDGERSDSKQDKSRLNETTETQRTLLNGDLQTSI
Protocol for human SSTR-2: CHO-K1 (ovary, Chinese hamster) cells were obtained from the American Type Culture Collection, Rockville, Md. […] The cells were grown and maintained in Ham's F12 media (Gibco BRL, Grand Island, N.Y.) supplemented with 10% fetal bovine serum under standard tissue culture conditions.
For transfection, the cells were seeded at a density 1×10^6/60 cm^2 plate (Baxter Scientific Products, McGaw Park, Ill.). DNA mediated transfection was carried out using the calcium phosphate co-precipitation method (Ausubel, et al., Current Protocols in Molecular Biology, John Wiley & Sons, 1987). The plasmid pRSV-neo (ATCC; ATCC No. 37198) was included as a selectable marker at 1/10 the concentration of the expression plasmid. CHO-K1 clonal cell lines that have stably inherited the transfected DNA were selected for growth in Ham's F12 media containing 10% fetal bovine serum and 0.5 mg/ml of G418 (Sigma Chemical Co., St. Louis, Mo.). The cells were ring-cloned and expanded in the same media for analysis.
Protocol for rat Pancreas cells: Sprague-Dawley rats (male, 200-300 g) (Harlan-Olac, Bicester, Oxon, UK) were anaesthetized with sodium pentobarbitone (60 mg/kg). […] The pancreases were perfused, as described in Dunmore, et al., J. Endocrinol., 1993, 137, 375-381, with modified Krebs-Ringer bicarbonate buffer containing 3% dextran T40 (Pharmacia, Milton Keynes, Bucks, UK) and 1% high purity bovine serum albumin (Sigma, Poole, Dorset, UK). After an initial 15-min period to allow for stabilization, the isolated pancreases were perfused at sequential 10 min. intervals, at a rate of 4.5-5.0 ml/min, with the following buffer compositions: 1) Buffer 1: Krebs-Ringer bicarbonate buffer containing 5.6 mM glucose (to examine baseline amylin secretion); 2) Buffer 2: Krebs-Ringer bicarbonate buffer containing 16.7 mM glucose (to examine high glucose stimulated secretion); 3) Buffer 3: Krebs-Ringer bicarbonate buffer containing 16.7 mM glucose in the presence of 10 nM of test compound (to examine the activity of test compounds on high glucose stimulated amylin secretion); and 4) Buffer 2: Krebs-Ringer bicarbonate buffer containing 16.7 mM glucose (to re-examine high glucose stimulated amylin secretion in order to assess the reversibility of the activity of the test compounds).
Fractions of the perfusate were collected on ice every minute in the presence of 400 KIU/ml aprotinin (Bayer, Hayward's Heath, W. Sussex, UK). Fractions were stored at −20° C. until assay. Perfusates collected were divided into 3×1.5 ml aliquots and assayed for amylin by radioimmunoassay as described in Dunmore, et al., J. Endocrinol., 1993, 137:375. Amylin was assayed using reagents supplied by Peninsula Laboratories Ltd. (St. Helens, Merseyside, UK). These reagents include ^125I-labelled amylin, rabbit anti-rat amylin antibody, and rat amylin. Bound amylin was precipitated using goat anti-rabbit second antibody—coupled cellulose (Sac-Cal, IDS, Boldon, Tyneawear, UK).

On to `C[C@@H](O)[C@H](NC(=O)[C@H](Cc1ccccc1)NC(=O)[C@@H](NC(=O)[C@H](CCCCN)NC(=O)[C@@H](Cc1c[nH]c2ccccc12)NC(=O)[C@H](Cc1ccccc1)NC(=O)[C@H](Cc1ccccc1)NC(=O)[C@H](N)Cc1ccccc1)[C@@H](C)O)C(=O)O` [Analog I, H-D-Phe-Phe-Phe-D-Trp-Lys-Thr-Phe-Thr-OH] (H-[dF]FF[dW]KTFT-OH), for which the inhibition constant Ki at rat SSTR-2 (setting [3]) stood at 37.2 nM; on rat SSTR-5 [1] (read-out: Ki SSTR-5) it was 3.57 nM; at human SSTR-5, 12.4 nM; at human SSTR-2, 14.2 nM. Moreover, the entries for the “SSTR-2/SSTR-5 (ratio of Ki's)” value in the assay with rat SSTR-5 [2] and on human SSTR-5 were 10.4 and 1.14, respectively.

For the compound Somatostatin-14 [reference compound], the figures for the “SSTR-2/SSTR-5 (ratio of Ki's)” value with rat SSTR-5 [2] and at human SSTR-5 were 0.34 and 0.20, respectively. The “effect on glucose-induced amylin secretion (in words)” value in the assay with rat Pancreas cells is reported as “inhibited glucose-induced amylin secretion”.

`C[C@@H](O)[C@H](NC(=O)[C@H](Cc1ccccc1)NC(=O)[C@@H](NC(=O)[C@H](CCCCN)NC(=O)[C@@H](Cc1c[nH]c2ccccc12)NC(=O)[C@H](Cc1ccccc1)NC(=O)[C@H](Cc1ccccc1)NC(=O)[C@H](N)Cc1ccccc1)[C@@H](C)O)C(N)=O` [BIM-23052, H-D-Phe-Phe-Phe-D-Trp-Lys-Thr-Phe-Thr-NH2] (H-[dF]FF[dW]KTFT-NH2): the Ki on rat SSTR-2 amounted to 8.04 nM; on rat SSTR-5 [1] (read-out: Ki SSTR-5), 3.16 nM; at human SSTR-2, 14.1 nM. In addition, the figures for the “SSTR-2/SSTR-5 (ratio of Ki's)” value in the assay with rat SSTR-5 [2] and at human SSTR-5 were 2.54 and 11.5, respectively. For the same compound, the “decrease in glucose stimulated amylin secretion” value in the assay on rat Pancreas cells was found to be 78%.

As to `C[C@@H](O)[C@H](NC(=O)[C@H](Cc1ccccc1)NC(=O)[C@@H](NC(=O)[C@H](CCCCN)NC(=O)[C@@H](Cc1c[nH]c2ccccc12)NC(=O)[C@H](Cc1ccccc1)NC(=O)[C@H](Cc1ccccc1)NC(=O)[C@@H](Cc1ccccc1)NC(=O)CN1CCN(CCO)CC1)[C@@H](C)O)C(N)=O` [Analog II] (X1-[dF]FF[dW]KTFT-NH2), the Ki worked out at 305 nM at rat SSTR-2 (setting [3]); 5.38 nM at rat SSTR-5 [1] (read-out: Ki SSTR-5); 1.29 nM at human SSTR-5 (human receptor in CHO-K1 cells, LC 0.05 nM, LEC 0.18 nM, read-out: Ki SSTR-5); 4.15 nM on human SSTR-2.

Consider `CC(C)[C@@H]1NC(=O)[C@H](CCCCN)NC(=O)[C@@H](Cc2c[nH]c3ccccc23)NC(=O)[C@H](Cc2ccc(O)cc2)NC(=O)[C@@H](NC(=O)[C@H](N)Cc2ccc3ccccc3c2)CSSC[C@@H](C(=O)N[C@H](C(N)=O)[C@@H](C)O)NC1=O` [BIM-23014, H-D-P-Nal-Cys-Tyr-D-Trp-Lys-Val-Cys-Ser-NH2, reference compound], for which the inhibitory constant (Ki) on rat SSTR-2 was 0.34 nM; on rat SSTR-5 [1], 64.8 nM; at human SSTR-2 it was 1.09 nM. Moreover, the “effect on glucose-induced amylin secretion (in words)” value with rat Pancreas cells is recorded as “no effect”.

Regarding `C[C@@H](O)[C@@H]1NC(=O)[C@H](CCCCN)NC(=O)[C@@H](Cc2c[nH]c3ccccc23)NC(=O)[C@H](Cc2ccccc2)NC(=O)[C@@H](NC(=O)[C@H](N)Cc2ccccc2)CSSC[C@@H](C(=O)N[C@H](CO)[C@@H](C)O)NC1=O` [SMS 201-995, H-D-Phe-Cys-Phe-D-Trp-Lys-Thr-Cys-Threoninol, reference compound], the affinity on rat SSTR-5 [1], expressed as Ki, was 9.14 nM.

(Values after patent US6774109B2, “Inhibition of amylin release” (Societe de Conseils de Recherches et d'Applications …, priority 1995, dated 2004).)
